The values below come from patent publication US8470344B2, “Aqueous dispersions and solutions of difficult to dissolve materials and methods of their preparation” (Teva Pharmaceutical Industries Ltd., priority 2005, dated 2013).

Data set [1] can be described thus: Dissolving or dispersing the compound-covered substrate matrix (dry powder) in water. It is filed as physicochemical. Here is the method:
1 mL of the Latanoprost solution (6.4 mg/mL) in ethanol was added to a mixture of NaH2PO4*H2O (0.553 g) and Na2HPO4 (0.564 g). The resulting mixture was dried under reduced pressure at room temperature to yield dry powder particles having latanoprost on the surface thereof. The dry powder was dissolved in water (120 mL) to form a solution. Benzalkonium chloride was added to the solution.
Latanoprost (17.97 mg) was dissolved in acetonitrile (5 mL). 1.5 mL of this solution were added to mixture of NaH2PO4 (0.464 g) and Na2HPO4 (0.469 g). The resulting mixture was dried under reduced pressure to obtain a dry powder. 50 mL of water were added to dry powder and stirred during 5 minutes. A fine suspension of Latanoprost with concentration about 0.01% (w/v) was obtained. 50 mL of water, containing Benzalkonium chloride and sodium chloride, were added to this suspension and stirred. The obtained clear solution of Latanoprost had concentration 0.005% (w/v).
Dexamethasone (104.05 mg) was dissolved in acetonitrile (5 mL). 1 mL of this solution was added to 545 mg of NaH2PO4*H2O and the mixture was dried in a reduced pressure for 15 hours. 20 mL of water were added and mixture was stirred. A fine suspension of dexamethasone (concentration about 0.1% w/v) was obtained.

The nature of data set [2]: Comparative example: direct dissolution of latanoprost in water containing NaH2PO4 with stirring. It is filed as physicochemical. Here is the method:
Latanoprost (5.621 mg) was dissolved in water (100 mL), containing NaH2PO4 (0.463 g). The mixture was stirred for 120 minutes.
The mixture from Example 3 was heated at 40° C. with stirring for 120 minutes. A solution of Latanoprost with concentration 0.00407% (w/v, or 81.4% of target concentration 0.005%) was obtained.

Molecules are shown by their SMILES.

For `CC(C)OC(=O)CCC/C=C\C[C@@H]1[C@@H](CC[C@@H](O)CCc2ccccc2)[C@H](O)C[C@@H]1O` [Latanoprost, Isopropyl (Z)-7-{(1R,2R,3R,5S)-3,5-dihydroxy-2-[3(R)-(3-hydroxyl-5-phenyl)pentyl]cyclopentyl}-5-heptenoate], the “content of Latanoprost in resultant solution” value in data set [1] (Example 1: ethanol solution dried on NaH2PO4*H2O/Na2HPO4, powder dissolved in water (120 mL), benzalkonium chloride added, room temperature) was 0.005 % (w/v). Besides, the “appearance and stability of resultant solution” value in data set [1] (Example 1: powder dissolved in water (120 mL), benzalkonium chloride added) was “transparent and stable”. The “concentration of fine suspension of Latanoprost” value in data set [1] (Example 2: acetonitrile solution dried on NaH2PO4/Na2HPO4, 50 mL water, stirred 5 minutes) is reported as “about 0.01 % (w/v)”. The “concentration of obtained clear solution of Latanoprost” value in data set [1] (Example 2: after further 50 mL water containing benzalkonium chloride and sodium chloride) is given as 0.005 % (w/v). Further, the “Latanoprost concentration of aqueous solution” value in data set [2] (Example 3 (comparative): 5.621 mg in water (100 mL) with NaH2PO4, stirred 120 minutes) is recorded as 0.00015 % (w/v). The “percent of target concentration of 0.005%” value in data set [2] (Example 3 (comparative): stirred 120 minutes, no heating) stood at 30%. For the same molecule, in data set [2] (Example 4 (comparative): heated at 40° C. with stirring for 120 minutes), the “percent of target concentration 0.005%” value is listed as 81.4%. Also, the “concentration of solution of Latanoprost” value in data set [2] (Example 4 (comparative): mixture from Example 3 heated at 40° C. with stirring for 120 minutes) was 0.00407 % (w/v).
